According to the supplement of paper PMC7394473:

Key:
Details in all cases: 72 h
U2OS [1] = test: GR50 (concentration giving GR = 0.5)
Method: (§1)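 U2OS cells treated with full dose titrations of drug; live and dead cells counted by STACK microscopy (mKate2 nuclei, SYTOX Green) at 72 h, biological triplicates. GR and FV dose responses were fitted with 4-parameter logistic models (GR lower bound -1). GRADE (0-100) is the rescaled angle of a linear fit of FV versus GR at doses with GR >= 0, giving the percentage of the response due to cell death.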

U2OS [2] = test: fractional viability (live cells / total cells); higher = less cell death
Method: (§2)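 U2OS::Nuc-mKate2 cells seeded in 96-well plates and treated with eight- to ten-point half-log or log dilutions of drug in the presence of 50 nM SYTOX Green. Live (mKate2+) and dead (SYTOX+) cells were counted by IncuCyte STACK live-cell microscopy at 72 h; biological triplicates. GR is the normalised growth-rate inhibition value (Hafner 2016; 1 = untreated growth, <0 = population shrinking). FV is live/(live+dead) cells, not normalised.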

U2OS [3] = test: FV IC50 (concentration giving fractional viability 0.5); higher = less potent killing
Method: as §1

U2OS [4] = test: drug GRADE (percent of response due to cell death) (% (0-100)); higher = more death-driven response
Method: as §1

U2OS [5] = test: GRmin (fitted minimal GR value at highest effect) (GR value (dimensionless)); higher = less efficacious
Method: as §1

U2OS [6] = test: normalized growth rate inhibition value (GR) relative to untreated cells (GR value (dimensionless, 1 = untreated growth)); higher = less growth inhibition
Method: as §2

COC(=O)c1ccc2c(c1)NC(=O)/C2=C(\Nc1ccc(N(C)C(=O)CN2CCN(C)CC2)cc1)c1ccccc1 [Bibf-1120]
Details | FV IC50 [nM] | GR50 [µM] | GRmin | drug GRADE
U2OS [1] | – | 0.845 | – | –
U2OS [3] | 1480 | – | – | –
U2OS [4] | – | – | – | 50.6
U2OS [5] | – | – | -0.805 | –

Details | fractional viability, U2OS [2] | normalized growth rate inhibition value, U2OS [6]
0.01 µM | 0.981 | 1.08
0.0316 µM | 0.975 | 1.04
0.1 µM | 0.974 | 0.935
0.316 µM | 0.947 | 0.813
1 µM | 0.758 | 0.427
3.16 µM | 0.092 | -0.468
10 µM | 0.00465 | -0.767
31.6 µM | 0.00201 | -0.767

CC(C)C[C@H](NC(=O)[C@H](Cc1ccccc1)NC(=O)c1cnccn1)B(O)O [Bortezomib]
Details | FV IC50 [nM] | GR50 [µM] | GRmin | drug GRADE
U2OS [1] | – | 0.0115 | – | –
U2OS [3] | 29.4 | – | – | –
U2OS [4] | – | – | – | 17.4
U2OS [5] | – | – | -0.899 | –

Details | fractional viability, U2OS [2] | normalized growth rate inhibition value, U2OS [6]
0.01 µM | 0.919 | 0.572
0.0316 µM | 0.432 | -0.293
0.1 µM | 0.00995 | -0.811
0.316 µM | 0.00177 | -0.912
1 µM | 0.00348 | -0.874
3.16 µM | 0.00249 | -0.887
10 µM | 0.00121 | -0.913
31.6 µM | 0.000942 | -0.902

Nc1cc(C(F)(F)F)c(-c2cc(N3CCOCC3)nc(N3CCOCC3)n2)cn1 [Buparlisib]
Details | FV IC50 [nM] | GR50 [µM] | GRmin | drug GRADE
U2OS [1] | – | 0.439 | – | –
U2OS [3] | 4100 | – | – | –
U2OS [4] | – | – | – | 15.2
U2OS [5] | – | – | -0.554 | –

Details | fractional viability, U2OS [2] | normalized growth rate inhibition value, U2OS [6]
0.00100578 µM | 0.986 | 0.914
0.00317827 µM | 0.984 | 0.956
0.0100433 µM | 0.986 | 0.959
0.0317369 µM | 0.986 | 0.899
0.100289 µM | 0.985 | 0.77
0.316912 µM | 0.976 | 0.704
1.00144 µM | 0.868 | 0.0802
3.16456 µM | 0.558 | -0.224
10 µM | 0.404 | -0.493

CC[C@@]1(O)C(=O)OCc2c1cc1n(c2=O)Cc2cc3ccccc3nc2-1 [Camptothecin]
Details | FV IC50 [nM] | GR50 [µM] | GRmin | drug GRADE
U2OS [1] | – | 0.00513 | – | –
U2OS [3] | 761 | – | – | –
U2OS [4] | – | – | – | 25.1
U2OS [5] | – | – | -0.368 | –

Details | fractional viability, U2OS [2] | normalized growth rate inhibition value, U2OS [6]
0.001 µM | 0.969 | 0.83
0.00316 µM | 0.949 | 0.651
0.01 µM | 0.91 | 0.219
0.0316 µM | 0.898 | 0.0844
0.1 µM | 0.869 | 0.0979
0.316 µM | 0.661 | -0.0587
1 µM | 0.448 | -0.211
3.16 µM | 0.213 | -0.411

Cc1cc(Nc2ncc(Cl)c(Nc3ccccc3S(=O)(=O)C(C)C)n2)c(OC(C)C)cc1C1CCNCC1 [Ceritinib]
Details | FV IC50 [nM] | GR50 [µM] | drug GRADE
U2OS [1] | – | 3.32 | –
U2OS [3] | 5270 | – | –
U2OS [4] | – | – | 7.14

Details | fractional viability, U2OS [2] | normalized growth rate inhibition value, U2OS [6]
0.00100578 µM | 0.991 | 1.05
0.00317827 µM | 0.989 | 1.06
0.0100433 µM | 0.992 | 1.15
0.0317369 µM | 0.988 | 1.13
0.100289 µM | 0.989 | 1.02
0.316912 µM | 0.984 | 0.964
1.00144 µM | 0.98 | 0.904
3.16456 µM | 0.943 | 0.588
10 µM | 0 | -1

CCc1cnn2c(NCc3ccc[n+]([O-])c3)cc(N3CCCC[C@H]3CCO)nc12 [Dinaciclib]
Details | FV IC50 [nM] | GR50 [µM] | GRmin | drug GRADE
U2OS [1] | – | 0.00437 | – | –
U2OS [3] | 8.07 | – | – | –
U2OS [4] | – | – | – | 3.29
U2OS [5] | – | – | -0.376 | –

Details | fractional viability, U2OS [2] | normalized growth rate inhibition value, U2OS [6]
0.000100578 µM | 0.986 | 0.892
0.000317827 µM | 0.983 | 0.802
0.00100433 µM | 0.984 | 0.876
0.00317369 µM | 0.972 | 0.756
0.0100289 µM | 0.41 | -0.288
0.0316912 µM | 0.32 | -0.406
0.100144 µM | 0.339 | -0.368
0.316456 µM | 0.35 | -0.358
1 µM | 0.406 | -0.373

CC(=O)O[C@@]12CO[C@@H]1C[C@H](O)[C@@]1(C)C(=O)[C@H](O)C3=C(C)[C@@H](OC(=O)[C@H](O)[C@@H](NC(=O)OC(C)(C)C)c4ccccc4)C[C@@](O)([C@@H](OC(=O)c4ccccc4)[C@H]21)C3(C)C [Docetaxel]
Details | FV IC50 [nM] | GR50 [µM] | GRmin | drug GRADE
U2OS [1] | – | 0.000853 | – | –
U2OS [3] | 4.77 | – | – | –
U2OS [4] | – | – | – | 69.6
U2OS [5] | – | – | -0.193 | –

Details | fractional viability, U2OS [2] | normalized growth rate inhibition value, U2OS [6]
0.00100578 µM | 0.707 | 0.339
0.00317827 µM | 0.588 | 0.223
0.0100433 µM | 0.41 | 0.0565
0.0317369 µM | 0.413 | -0.0266
0.100289 µM | 0.323 | -0.14
0.316912 µM | 0.351 | -0.174
1.00144 µM | 0.252 | -0.245
3.16456 µM | 0.238 | -0.251
10 µM | 0.255 | -0.164

COc1cccc2c1C(=O)c1c(O)c3c(c(O)c1C2=O)C[C@@](O)(C(=O)CO)C[C@@H]3O[C@H]1C[C@H](N)[C@H](O)[C@H](C)O1 [Doxorubicin]
Details | FV IC50 [nM] | GR50 [µM] | GRmin | drug GRADE
U2OS [1] | – | 0.0332 | – | –
U2OS [3] | 2590 | – | – | –
U2OS [4] | – | – | – | 3.78
U2OS [5] | – | – | -0.576 | –

Details | fractional viability, U2OS [2] | normalized growth rate inhibition value, U2OS [6]
0.00100578 µM | 0.987 | 0.879
0.00317827 µM | 0.99 | 1.06
0.0100433 µM | 0.989 | 0.832
0.0317369 µM | 0.971 | 0.368
0.100289 µM | 0.967 | 0.0816
0.316912 µM | 0.978 | 0.0197
1.00144 µM | 0.851 | -0.0749
3.16456 µM | 0.113 | -0.501
10 µM | 0 | -1
